Experimental data taken from publication PMC7116001 (Science (New York, N.Y.), 2020).

Biological target: T1, S. acidocaldarius 20S proteasome (Saci_0613/Saci_0662ΔN/Saci_0909ΔN) (Sulfolobus acidocaldarius, UniProt Q4JAA8)
T1 sequence (Q4JAA8 11-203): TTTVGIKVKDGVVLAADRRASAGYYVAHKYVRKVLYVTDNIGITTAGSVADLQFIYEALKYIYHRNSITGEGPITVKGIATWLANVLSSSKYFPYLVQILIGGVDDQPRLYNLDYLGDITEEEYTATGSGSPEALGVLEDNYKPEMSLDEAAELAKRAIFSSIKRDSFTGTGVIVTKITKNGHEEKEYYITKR
T1 sequence (Q4JB24 1-242 partner): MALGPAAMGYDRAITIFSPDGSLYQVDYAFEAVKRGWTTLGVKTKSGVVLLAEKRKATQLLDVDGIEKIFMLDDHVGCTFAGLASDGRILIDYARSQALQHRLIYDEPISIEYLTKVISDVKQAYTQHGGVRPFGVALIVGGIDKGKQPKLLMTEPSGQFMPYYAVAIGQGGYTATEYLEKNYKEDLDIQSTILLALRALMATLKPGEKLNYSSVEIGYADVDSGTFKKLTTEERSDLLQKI
T1 sequence (Q4JAY3 7-195 partner): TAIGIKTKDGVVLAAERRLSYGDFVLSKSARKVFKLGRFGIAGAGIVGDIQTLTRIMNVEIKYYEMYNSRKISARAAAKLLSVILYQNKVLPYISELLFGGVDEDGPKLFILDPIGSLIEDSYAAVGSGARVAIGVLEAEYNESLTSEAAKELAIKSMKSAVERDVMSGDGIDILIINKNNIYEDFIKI
Assay: degradation of Urm1
Type: biochemical
Details: substrate 3xUrm1-GFP; covalent (reversible boronate on Thr1, modelled)

CC(C)C[C@H](NC(=O)[C@H](Cc1ccccc1)NC(=O)c1cnccn1)B(O)O [bortezomib]
rate of substrate degradation: with different concentrations of inhibitor, the rate of substrate degradation was diminished
